Tests used:
[1] = system: Gram negative non-fermenting bacteria; assay: Liquid broth assays (MIC and checkerboard), modified ISO 20776-1:2006; format: cell-based; settings: individual chemical; tryptic soy broth, 30° C., 24 hours, OD600; MIC = <25% growth vs positive growth control
Description: (§1) The differing behaviours of inhibitory antimicrobials in isolation and mixtures have been widely explored using the concept of the Fractional Concentration and Fractional Inhibitory Concentration (FIC). See for instance JRW Lambert and R Lambert, J. Appl. Microbiol 95, 734 (2003); T. Jadavji, C G Prober and R Cheung, Antimicrobial Agents and Chemotherapy 26, 91 (1984), and WO 2004/006876. These parameters can be defined as follows: FC(component a)=Concentration of component a tested in the mixture/MIC(component a tested as a single active) FIC(component a)=MIC(component a tested in the mixture)/MIC(component a tested as a single active)
(§2) These relationships can be expressed mathematically by summing the fractional MIC values for all the components present in the mixture to give the “fractional inhibitory index”: ΣFIC=FIC(component 1)+FIC(component 2)
(§3) Liquid broth assays (MIC and checkerboard) were conducted to identify the minimum concentration(s) of individual and binary combinations of preservation chemicals. A modified methodology to ISO 20776-1:2006 was utilised for the screening as follows. Stock solutions of preservation chemicals and tryptic soy broth were inoculated with 1-5×10^6 microorganisms and incubated at 30° C. for 24 hours, after which optical densities at OD600 nm were measured. Microorganisms used for assessed included Gram negative non-fermenting bacteria: Pseudomonas aeruginosa, Pseudomonas putida & Burkholderia cepacia and Gram negative fermenting bacteria: Enterobacter gergoviae & Klebsiella species. […] Preservation chemicals were screened at a concentration range of 0.0156-2%.

[2] = system: Gram negative fermenting bacteria; assay: as above; format: cell-based, Enterobacter gergoviae & Klebsiella species; settings: individual chemical; tryptic soy broth, 30° C., 24 hours, OD600; MIC = <25% growth vs positive growth control
Description: as §1, §2, §3

SMILES | MIC Gram negative non-fermenting bacteria [1] | MIC Gram negative fermenting bacteria [2]
OCc1ccccc1 [Benzyl alcohol, reference compound] | 0.125 wt % | 0.5 wt %
C=C(CC(=O)O)C(=O)O [Itaconic acid] | 0.5 wt % | 0.5 wt %
O=C([O-])c1ccccc1.[Na+] [Sodium benzoate] | 1 wt % | 1 wt %
